Results taken from PubChem BioAssay (NCI).
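How tested: cells in 96-well plates exposed to compound for 48 hours at five concentrations. Definition used: TGI = concentration required for complete inhibition of growth.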

Experiments:
Assay in all cases: NCI-60 cell line screen, 48 h
[1] = test system: UACC-257 melanoma
[2] = test system: TK-10 renal
[3] = test system: HT29 colon
[4] = test system: MDA-MB-231 breast
[5] = test system: KM12 colon
[6] = test system: OVCAR-3 ovarian
[7] = test system: A549 NSCLC
[8] = test system: BT-549 breast
[9] = test system: MOLT-4 leukemia
[10] = test system: OVCAR-4 ovarian
[11] = test system: SK-MEL-5 melanoma
[12] = test system: MDA-N
[13] = test system: RPMI-8226 leukemia
[14] = test system: SNB-75 CNS
[15] = test system: HCT-116 colon
[16] = test system: HOP-92 NSCLC
[17] = test system: 786-0 renal
[18] = test system: NCI/ADR-RES ovarian
[19] = test system: SW-620 colon
[20] = test system: NCI-H23 lung
[21] = test system: NCI-H460 lung
[22] = test system: SNB-19 CNS
[23] = test system: SF-268 CNS
[24] = test system: U251 CNS
[25] = test system: PC-3 prostate
[26] = test system: K-562 leukemia
[27] = test system: SK-OV-3 ovarian
[28] = test system: M14 melanoma
[29] = test system: UACC-62 melanoma
[30] = test system: SN12C renal
[31] = test system: T-47D breast
[32] = test system: LOX IMVI melanoma
[33] = test system: RXF 393 renal
[34] = test system: HCT-15 colon
[35] = test system: A498 renal
[36] = test system: SF-295 CNS
[37] = test system: CAKI-1 renal
[38] = test system: HCC-2998 colon
[39] = test system: OVCAR-8 ovarian
[40] = test system: HOP-62 NSCLC
[41] = test system: DU-145 prostate
[42] = test system: COLO 205 colon
[43] = test system: ACHN renal
[44] = test system: MCF7 breast
[45] = test system: SF-539 CNS
[46] = test system: SK-MEL-28 melanoma
[47] = test system: UO-31 renal
[48] = test system: SK-MEL-2 melanoma
[49] = test system: NCI-H522 lung
[50] = test system: IGROV1 ovarian
[51] = test system: EKVX NSCLC
[52] = test system: NCI-H226 lung
[53] = test system: OVCAR-5 ovarian
[54] = test system: MALME-3M melanoma
[55] = test system: HL-60(TB) leukemia
[56] = test system: HS 578T breast
[57] = test system: CCRF-CEM leukemia
[58] = test system: SR leukemia
[59] = test system: MDA-MB-435

SMILES: CN(C(=O)c1ccc(Cl)s1)C(=S)N(C)C(=O)c1ccc(Cl)s1
- TGI [1]: > 10 µM
- TGI [2]: > 10 µM
- TGI [3]: > 10 µM
- TGI [4]: > 10 µM
- TGI [5]: > 10 µM
- TGI [6]: > 10 µM
- TGI [7]: > 10 µM
- TGI [8]: > 10 µM
- TGI [9]: > 10 µM
- TGI [10]: > 10 µM
- TGI [11]: > 10 µM
- TGI [12]: > 10 µM
- TGI [13]: > 10 µM
- TGI [14]: > 10 µM
- TGI [15]: > 10 µM
- TGI [16]: > 10 µM
- TGI [17]: > 10 µM
- TGI [18]: > 10 µM
- TGI [19]: > 10 µM
- TGI [20]: > 10 µM
- TGI [21]: > 10 µM
- TGI [22]: > 10 µM
- TGI [23]: > 10 µM
- TGI [24]: > 10 µM
- TGI [25]: > 10 µM
- TGI [26]: > 10 µM
- TGI [27]: > 10 µM
- TGI [28]: > 10 µM
- TGI [29]: > 10 µM
- TGI [30]: > 10 µM
- TGI [31]: > 10 µM
- TGI [32]: > 10 µM
- TGI [33]: > 10 µM
- TGI [34]: > 10 µM
- TGI [35]: > 10 µM
- TGI [36]: > 10 µM
- TGI [37]: > 10 µM
- TGI [38]: > 10 µM
- TGI [39]: > 10 µM
- TGI [40]: > 10 µM
- TGI [41]: > 10 µM
- TGI [42]: > 10 µM
- TGI [43]: > 10 µM
- TGI [44]: > 10 µM
- TGI [45]: > 10 µM
- TGI [46]: > 10 µM
- TGI [47]: > 10 µM
- TGI [48]: > 10 µM
- TGI [49]: > 10 µM
- TGI [50]: > 10 µM
- TGI [51]: > 10 µM
- TGI [52]: > 10 µM
- TGI [53]: > 10 µM
- TGI [54]: > 10 µM
- TGI [55]: > 10 µM
- TGI [56]: > 10 µM
- TGI [57]: > 10 µM
- TGI [58]: > 10 µM

SMILES: O=C(NCCNCCO)N/N=C/c1ccc(Cl)cc1
- TGI [1]: > 100 µM
- TGI [2]: > 100 µM
- TGI [59]: > 100 µM
- TGI [3]: > 100 µM
- TGI [4]: > 100 µM
- TGI [5]: > 100 µM
- TGI [6]: > 100 µM
- TGI [7]: > 100 µM
- TGI [8]: > 100 µM
- TGI [9]: > 100 µM
- TGI [11]: > 100 µM
- TGI [12]: > 100 µM
- TGI [14]: > 100 µM
- TGI [15]: > 100 µM
- TGI [17]: > 100 µM
- TGI [18]: > 100 µM
- TGI [19]: > 100 µM
- TGI [20]: > 100 µM
- TGI [21]: > 100 µM
- TGI [22]: > 100 µM
- TGI [23]: > 100 µM
- TGI [24]: > 100 µM
- TGI [25]: > 100 µM
- TGI [26]: > 100 µM
- TGI [27]: > 100 µM
- TGI [28]: > 100 µM
- TGI [29]: > 100 µM
- TGI [30]: > 100 µM
- TGI [31]: > 100 µM
- TGI [34]: > 100 µM
- TGI [35]: > 100 µM
- TGI [36]: > 100 µM
- TGI [37]: > 100 µM
- TGI [38]: > 100 µM
- TGI [39]: > 100 µM
- TGI [40]: > 100 µM
- TGI [41]: > 100 µM
- TGI [42]: > 100 µM
- TGI [43]: > 100 µM
- TGI [44]: > 100 µM
- TGI [45]: > 100 µM
- TGI [46]: > 100 µM
- TGI [47]: > 100 µM
- TGI [48]: > 100 µM
- TGI [49]: > 100 µM
- TGI [50]: > 100 µM
- TGI [52]: > 100 µM
- TGI [53]: > 100 µM
- TGI [54]: > 100 µM
- TGI [55]: > 100 µM
- TGI [56]: > 100 µM
- TGI [57]: > 100 µM
- TGI [58]: > 100 µM
